Literature values, collected in US20230117236A1 (priority 2021, published 2023).

Tested on: SARS-CoV-2
Conditions: treatment with 24 ppm of chlorine dioxide; within 10 seconds

SMILES: [O][Cl+][O-] [chlorine dioxide]
- SARS-CoV-2 inactivated: more than 99.99%
